Measured values as given in PubChem BioAssay AID2060894 (Molecular Pharmacology Branch, DTP, NCI, 2025).
One block for each compound: values may come before it.

System: K12877-001-R-J1-PDC complex spheroid viability
Assay: Anticancer human tumor K12877-001-R-J1-PDC patient-derived lung adenocarcinoma cell line growth inhibition [RAS]
Details: for IC50: curve of first compound; for viability, T/C: stronger effect = lower value
Description: RAS pathway inhibitors in Combinations in Complex Spheroids
A high-throughput screen of multi-cell type tumor spheroids was designed to identify active combinations of RAS pathway inhibitors and targeted small molecules. Complex spheroids include a stromal component modeled by human endothelial cells (HUVEC) and fibroblasts modeled by human mesenchymal stem cells (MSCs). The concentration ranges selected for each drug and investigational agent were based upon clinically achievable concentrations if the clinical Cmax of the agent was known.
Compounds. The drugs and investigational agents: abemaciclib (NSC768073), cobimetinib (NSC768068), divarasib (GDC6063, NSC841802), docetaxel (NSC628503), GDC-1971 (RLY-1971, NSC841576), gemcitabine (NSC613327), inavolisib (NSC800729), ipatasertib (NSC767898), KB-0742 (NSC834161), MRTX-1133 (NSC836407), osimertinib (NSC779217), RMC-4630 (NSC839698), RMC-6236 (NSC851965), RMC-6291 (NSC852671), Ro-3306 (NSC812927), sapanisertib (NSC764658), SN-38 (NSC673596), staurosporine (NSC755774), SY5609 (NSC837396), and tovorafenib (DAY101, NSC766906), were obtained from the National Cancer Institute (NCI) Developmental Therapeutics Program Chemical Repository. The FDA-approved anticancer drug set is available from the NCI Developmental Therapeutics Program. […] The stock solutions were prepared in dimethyl sulfoxide (DMSO, Sigma-Aldrich, St. Louis, MO, cat. D2650) at 800-fold the tested concentration and stored at -70 degrees C prior to their use. All drugs and investigational agents were tested over a range starting from a high concentration at or near the clinical Cmax and decreasing in half-log increments. If the clinical Cmax for an agent had not been determined, the highest concentration tested was 10 microM.
Cell Culture. All cells were maintained in an incubator at 37 degrees C and 5% CO2 with 95% humidity. The PDC lines were cultured according to standard operating procedures established by the NCI PDMR. All PDCs were thawed and cultured in Matrigel-coated flasks prepared with a working solution of 1X Ham's F-12 nutrient mix, without supplementation (Invitrogen, Waltham, MA, cat. 11765054), 100 U/mL penicillin-streptomycin (Invitrogen, cat. 15140122), and 2.5% Matrigel (Corning Inc., Corning, NY, cat. 354248) for the first three passages. The 362531-283-R-J2-PDC and 782815-120-R-J1-PDC lines were cultured in 6C/Colon 1B media, which includes advanced DMEM/F-12 (Thermo Fisher Scientific, cat. 12634028), 10 mM HEPES (Thermo Fisher Scientific, cat. 15630080), 1X GlutaMAX supplement (Thermo Fisher Scientific, cat. 35050061), 0.1 mg/mL primocin (InvivoGen, San Diego, CA, cat. ant-pm-2), 10% defined fetal bovine serum, heat inactivated (HyClone Laboratories Inc., Logan, UT, cat. SH30070.03HI), 50% L-WRN conditioned media (ATCC, cat. CRL-3276), 1.25 mM N-Acetyl-L-cysteine (Sigma-Aldrich, cat. A9165), 10 mM nicotinamide (Sigma-Aldrich, cat. N0636), 1X B-27 supplement (Thermo Fisher Scientific, cat. 17504044), 1X N-2 supplement (Thermo Fisher Scientific, cat. 17502048), 50 ng/mL human EGF (Thermo Fisher Scientific, cat. PHG0311), and 10 microM Y-27632 dihydrochloride (Tocris Bioscience, cat. 1254). The K12877-001-R-J1-PDC line was cultured in 6I media, which includes all 6C/Colon 1B media plus 10 ng/mL human FGF-10 (PeproTech, cat. 100-26), 1 ng/mL human FGF-2 (PeproTech, cat. 100-18B), 1 µM prostaglandin E2 (Tocris Bioscience, cat. 2296), […] hydrocortisone (Sigma-Aldrich, cat. H4001), and […] bovine insulin (Sigma-Aldrich, cat. I6634). The K86415-001-R-J1-PDC line was cultured in 6D media, which includes all 6C/Colon 1B media components minus the L-WRN conditioned media. The 485176-168-R4-J1-PDC was cultured in PANC media, which includes all 6C/Colon 1B media plus 100 ng/mL human FGF-10 (PeproTech, cat. 100-26), 500 nM SB-431542 (Selleckchem, cat. S1067), and 10 nM gastrin (Tocris Bioscience, cat. 3006). […]

[1] = second compound 0.0316 µM, first compound 0.0316 µM
[2] = second compound 0.0316 µM, first compound 0.1 µM
[3] = second compound 0.0316 µM, first compound 0.316 µM
[4] = second compound 0.0316 µM, first compound 1 µM
[5] = second compound 0.0316 µM, first compound 3.16 µM
[6] = second compound 0.0316 µM, first compound 10 µM
[7] = second compound 0.1 µM, first compound 0.0316 µM
[8] = second compound 0.1 µM, first compound 0.1 µM
[9] = second compound 0.1 µM, first compound 0.316 µM
[10] = second compound 0.1 µM, first compound 1 µM
[11] = second compound 0.1 µM, first compound 3.16 µM
[12] = second compound 0.1 µM, first compound 10 µM
[13] = second compound 0.316 µM, first compound 0.0316 µM
[14] = second compound 0.316 µM, first compound 0.1 µM
[15] = second compound 0.316 µM, first compound 0.316 µM
[16] = second compound 0.316 µM, first compound 1 µM
[17] = second compound 0.316 µM, first compound 3.16 µM
[18] = second compound 0.316 µM, first compound 10 µM
[19] = second compound 1 µM, first compound 0.0316 µM
[20] = second compound 1 µM, first compound 0.1 µM
[21] = second compound 1 µM, first compound 0.316 µM
[22] = second compound 1 µM, first compound 1 µM
[23] = second compound 1 µM, first compound 3.16 µM
[24] = second compound 1 µM, first compound 10 µM
[25] = second compound 3.16 µM, first compound 0.0316 µM
[26] = second compound 3.16 µM, first compound 0.1 µM
[27] = second compound 3.16 µM, first compound 0.316 µM
[28] = second compound 3.16 µM, first compound 1 µM
[29] = second compound 3.16 µM, first compound 3.16 µM
[30] = second compound 3.16 µM, first compound 10 µM
[31] = second compound 10 µM, first compound 0.0316 µM
[32] = second compound 10 µM, first compound 0.1 µM
[33] = second compound 10 µM, first compound 0.316 µM
[34] = second compound 10 µM, first compound 1 µM
[35] = second compound 10 µM, first compound 3.16 µM
[36] = second compound 10 µM, first compound 10 µM
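Also: spheroids exposed to agents for one week before readout.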

IC50 (second compound 0.0316 µM): > 10 µM | IC50 (second compound 0.1 µM): > 10 µM | IC50 (second compound 0.316 µM): > 10 µM | IC50 (second compound 1 µM): > 10 µM | IC50 (second compound 3.16 µM): > 10 µM | IC50 (second compound 10 µM): > 10 µM
Structure (SMILES): Cc1nc(N2CCC3(CC2)COC(C)C3N)c(CO)nc1Sc1ccnc(N)c1Cl (stereo unspecified) + C#Cc1c(F)ccc2cc(O)cc(-c3ncc4c(N5CC6CCC(C5)N6)nc(OCC56CCCN5CC(F)C6)nc4c3F)c12
viability, T/C [1]: 94.3% | viability, T/C [2]: 97% | viability, T/C [3]: 99% | viability, T/C [4]: 95.1% | viability, T/C [5]: 103% | viability, T/C [6]: 77.5% | viability, T/C [7]: 109% | viability, T/C [8]: 110% | viability, T/C [9]: 92% | viability, T/C [10]: 87.7% | viability, T/C [11]: 93.5% | viability, T/C [12]: 84.1% | viability, T/C [13]: 107% | viability, T/C [14]: 98.8% | viability, T/C [15]: 91.2% | viability, T/C [16]: 92.9% | viability, T/C [17]: 78.5% | viability, T/C [18]: 65.7% | viability, T/C [19]: 101% | viability, T/C [20]: 92.5% | viability, T/C [21]: 93.1% | viability, T/C [22]: 95.7% | viability, T/C [23]: 82.9% | viability, T/C [24]: 69.5% | viability, T/C [25]: 100% | viability, T/C [26]: 94% | viability, T/C [27]: 92.4% | viability, T/C [28]: 79.7% | viability, T/C [29]: 79.7% | viability, T/C [30]: 69.7% | viability, T/C [31]: 93.6% | viability, T/C [32]: 86.1% | viability, T/C [33]: 83.9% | viability, T/C [34]: 83.4% | viability, T/C [35]: 86.9% | viability, T/C [36]: 84.8%

IC50 (second compound 0.0316 µM): > 10 µM | IC50 (second compound 0.1 µM): > 10 µM | IC50 (second compound 0.316 µM): > 10 µM | IC50 (second compound 1 µM): > 10 µM | IC50 (second compound 3.16 µM): > 10 µM | IC50 (second compound 10 µM): > 10 µM
Structure (SMILES): NC1c2ccccc2OC12CCN(c1cnc3c(N4CCCc5ncccc54)n[nH]c3n1)CC2 (stereo unspecified) + C#Cc1c(F)ccc2cc(O)cc(-c3ncc4c(N5CC6CCC(C5)N6)nc(OCC56CCCN5CC(F)C6)nc4c3F)c12
viability, T/C [1]: 104% | viability, T/C [2]: 92.3% | viability, T/C [3]: 86.8% | viability, T/C [4]: 93.1% | viability, T/C [5]: 85.3% | viability, T/C [6]: 50.4% | viability, T/C [7]: 106% | viability, T/C [8]: 91.1% | viability, T/C [9]: 90% | viability, T/C [10]: 78.9% | viability, T/C [11]: 84.2% | viability, T/C [12]: 58.9% | viability, T/C [13]: 98.4% | viability, T/C [14]: 93.2% | viability, T/C [15]: 88.5% | viability, T/C [16]: 86.8% | viability, T/C [17]: 74.2% | viability, T/C [18]: 55.8% | viability, T/C [19]: 105% | viability, T/C [20]: 97.1% | viability, T/C [21]: 86.8% | viability, T/C [22]: 87.6% | viability, T/C [23]: 71.2% | viability, T/C [24]: 54.8% | viability, T/C [25]: 99.7% | viability, T/C [26]: 84.8% | viability, T/C [27]: 104% | viability, T/C [28]: 87.8% | viability, T/C [29]: 72.7% | viability, T/C [30]: 55.1% | viability, T/C [31]: 90.4% | viability, T/C [32]: 97.6% | viability, T/C [33]: 102% | viability, T/C [34]: 91.8% | viability, T/C [35]: 64.9% | viability, T/C [36]: 63.8%

IC50 (second compound 0.0316 µM): 0.0187 µM | IC50 (second compound 0.1 µM): 0.017 µM | IC50 (second compound 0.316 µM): 0.0178 µM | IC50 (second compound 1 µM): 0.0176 µM | IC50 (second compound 3.16 µM): 0.0174 µM | IC50 (second compound 10 µM): 0.0162 µM
Structure (SMILES): Nc1ccn(C2OC(CO)C(O)C2(F)F)c(=O)n1 (stereo unspecified) + C#Cc1c(F)ccc2cc(O)cc(-c3ncc4c(N5CC6CCC(C5)N6)nc(OCC56CCCN5CC(F)C6)nc4c3F)c12
viability, T/C (second compound 0.0316 µM, first compound 0.00316 µM): 98.9% | viability, T/C (second compound 0.0316 µM, first compound 0.01 µM): 102% | viability, T/C [1]: 7.92% | viability, T/C [2]: 5.24% | viability, T/C [3]: 5.93% | viability, T/C [4]: 6.36% | viability, T/C (second compound 0.1 µM, first compound 0.00316 µM): 119% | viability, T/C (second compound 0.1 µM, first compound 0.01 µM): 85.9% | viability, T/C [7]: 7.72% | viability, T/C [8]: 5.87% | viability, T/C [9]: 5.86% | viability, T/C [10]: 5.63% | viability, T/C (second compound 0.316 µM, first compound 0.00316 µM): 102% | viability, T/C (second compound 0.316 µM, first compound 0.01 µM): 92.7% | viability, T/C [13]: 7.04% | viability, T/C [14]: 5.27% | viability, T/C [15]: 5.95% | viability, T/C [16]: 6.35% | viability, T/C (second compound 1 µM, first compound 0.00316 µM): 102% | viability, T/C (second compound 1 µM, first compound 0.01 µM): 88.8% | viability, T/C [19]: 9.52% | viability, T/C [20]: 5.65% | viability, T/C [21]: 6.02% | viability, T/C [22]: 6.24% | viability, T/C (second compound 3.16 µM, first compound 0.00316 µM): 106% | viability, T/C (second compound 3.16 µM, first compound 0.01 µM): 89% | viability, T/C [25]: 8.02% | viability, T/C [26]: 4.94% | viability, T/C [27]: 5.19% | viability, T/C [28]: 5.82% | viability, T/C (second compound 10 µM, first compound 0.00316 µM): 101% | viability, T/C (second compound 10 µM, first compound 0.01 µM): 79.4% | viability, T/C [31]: 8.95% | viability, T/C [32]: 5.43% | viability, T/C [33]: 6.72% | viability, T/C [34]: 5.24%
